Experimental data published in publication PMC8776995 (Frontiers in Chemistry, 2022).
Several values for one entry are separate records, joined by “and”; a condition that tells them apart may be missing. Identical values can stand only once.

Key:
[1] = test system: PC-9 xenograft; assay: In vivo antitumor activity, PC-9 xenograft in NSG mice; parameters: species or system mouse
Experimental: The mouse body mass was recorded as well.

[2] = Body mass of PC-9 tumor-bearing NSG mice after treatment; details: for Change in body weight: individual animals
Experimental: PC-9 xenografts were established by subcutaneous transplantation of cancer cells into the flanks of NSG mice (male, 4–6-week old). […] Tumor volumes were measured using calipers and calculated with the formula: V = length × width^2/2. The mouse body mass was recorded as well. 19 days after inoculation, the mice were sacrificed and the tumors were harvested and weighed.

With `COCCOc1cc2ncnc(Nc3cccc(-c4cn(Cc5cc(Br)cc(Br)c5)nn4)c3)c2cc1OCCOC` [e4, [6,7-Bis-(2-methoxy-ethoxy)-quinazolin-4-yl]-{3-[1-(3,5-dibromo-benzyl)-1H-[1,2,3]triazol-4-yl]-phenyl}-amine] the tumor volume mean ([1]; Day13, group mean) was 63.4029 mm3, the tumor length ([1]; Day13, individual animals) was 5.08 mm and 6.5 mm and 4.8 mm and 6.3 mm and 6.04 mm and 5.8 mm and 7.4 mm and 6.1 mm and the tumor volume ([1]; Day13, individual animals) was 59.9938 mm3 and 60.0925 mm3 and 44.376 mm3 and 55.566 mm3 and 68.426 mm3 and 38.5875 mm3 and 71.3446 mm3 and 78.292 mm3 and 93.9476 mm3. For the same molecule, the tumor width ([1]; Day13, individual animals) was 4.86 mm and 4.3 mm and 4.2 mm and 4.76 mm and 3.5 mm and 4.96 mm and 4.6 mm and 5.55 mm, the tumor volume mean ([1]; Day15, group mean) was 44.2866 mm3 and the tumor length ([1]; Day15, individual animals) was 3.97 mm and 5.56 mm and 5.73 mm and 4.91 mm and 4.11 mm and 5.48 mm and 4.95 mm and 6.93 mm and 5.72 mm. The tumor volume ([1]; Day15, individual animals) was 23.9012 mm3 and 57.8062 mm3 and 55.2146 mm3 and 35.078 mm3 and 33.0446 mm3 and 32.9921 mm3 and 21.979 mm3 and 91.1881 mm3 and 47.3756 mm3, the tumor width ([1]; Day15, individual animals) was 3.47 mm and 4.56 mm and 4.39 mm and 3.78 mm and 4.01 mm and 2.98 mm and 5.13 mm and 4.07 mm and the tumor volume mean ([1]; Day17, group mean) was 35.7355 mm3. For the same molecule, the tumor length ([1]; Day17, individual animals) was 3.7 mm and 7.6 mm and 4.76 mm and 5.8 mm and 4.94 mm and 4.9 mm and 5.1 mm and 4.6 mm, the tumor volume ([1]; Day17, individual animals) was 17.7785 mm3 and 54.872 mm3 and 38.4618 mm3 and 25.4086 mm3 and 28.0515 mm3 and 47.432 mm3 and 38.7855 mm3 and 30.2575 mm3 and 40.572 mm3 and the tumor width ([1]; Day17, individual animals) was 3.1 mm and 3.8 mm and 4.02 mm and 2.96 mm and 3.37 mm and 4.4 mm and 3.9 mm and 3.5 mm and 4.2 mm. For the same molecule, the tumor volume mean ([1]; Day19, group mean) was 22.669 mm3, the Tumor weight ([1]; Day19, individual animals) was 0.07 g and 0.02 g and 0.04 g and 0.03 g and the tumor length ([1]; Day19, individual animals) was 4.55 mm and 5.74 mm and 3.59 mm and 2.83 mm and 2.52 mm and 3 mm and 4.51 mm and 5.54 mm and 4.24 mm. For the same molecule, the tumor volume ([1]; Day19, individual animals) was 7.871 mm3 and 60.7292 mm3 and 20.5068 mm3 and 2.813 mm3 and 5.663 mm3 and 9.6774 mm3 and 39.0241 mm3 and 23.1353 mm3 and 34.6018 mm3, the tumor width ([1]; Day19, individual animals) was 1.86 mm and 4.6 mm and 3.38 mm and 1.41 mm and 2.12 mm and 2.54 mm and 4.16 mm and 2.89 mm and 4.04 mm and the Body weigh ([2]; Day13, individual animals) was 27 g and 25.6 g and 24.1 g and 27.3 g and 28.8 g. For the same molecule, the Body weigh ([2]; Day15, individual animals) was 25.7 g and 26.2 g and 25.9 g and 27.3 g and 29 g, the “Change in body weight” value ([2]; Day15 vs previous weighing) was -4.815% and 2.344% and 7.469% and 0% and 0.6944% and the Body weigh ([2]; Day17, individual animals) was 26 g and 23.9 g and 26.1 g and 27.3 g and 29.1 g. For the same molecule, the “Change in body weight” value ([2]; Day17 vs previous weighing) was 1.167% and -8.779% and 0.7722% and 0% and 0.3448%, the Body weigh ([2]; Day19, individual animals) was 25.9 g and 26 g and 26.2 g and 27.1 g and 29.1 g and the “Change in body weight” value ([2]; Day19 vs previous weighing) was -0.3846% and 8.787% and 0.3831% and -0.7326% and 0%.

`COCCOc1cc2ncnc(Nc3cccc(-c4cn(-c5ccc(C)cc5)nn4)c3)c2cc1OCCOC` [e12, [6,7-Bis-(2-methoxy-ethoxy)-quinazolin-4-yl]-[3-(1-p-tolyl-1H-[1,2,3]triazol-4-yl)-phenyl]-amine] gave a melting point of 95 to 98 °C.
